Test results from patent US8674107B2, “Crystal of anti-bacterial compound” (priority 2010, dated 2014).
Where a name gives a salt, the structure may show the parent alone.

What was measured:
Format in all cases: physicochemical
[1] = Evaluation of chemical stability (storage under dry-heat or wet-heat, HPLC); conditions: 2 weeks
Protocol: Approximately 2 mg each of various samples prepared in Example 1 was weighed into an aluminum pan for thermal analysis and stored under dry-heat (60° C., 0% RH) or wet-heat (40° C., 75% RH) conditions. One and two weeks later, each sample was collected, and the change in weight was determined. Then, the whole amount was dissolved in 20 mL of an eluent and subjected to HPLC analysis.

[2] = Evaluation of solubility in test solutions (HPLC); conditions: for Concentration: 37° C., total of 30 minutes
Protocol: The monohydrochloride dihydrate prepared in Example 1 and the free form (anhydrous form) were used in the following evaluation of solubility: an appropriate amount of each sample was added to 2 mL each of the test solutions (water, the JP 1st fluid for the disintegration test (JP1), and the JP 2nd fluid for the disintegration test (JP2)), fasted state simulated intestinal fluid (FaSSIF), and fed state simulated intestinal fluid (FeSSIF), and incubated in a thermobath of 37° C. Each solution was shaken in a vortex mixer for 30 seconds every 5 minutes (for a total of 30 minutes). Then, the supernatant was filtered through a membrane filter (pore size: 0.45 μm). After appropriate dilution with an eluent, the diluted solution was subjected to HPLC analysis to calculate concentration.
Measurement conditions for HPLC;
Column: Waters Symmetry C18 3.5 um, 4.6×100 mm
Column temperature: 40° C.
Mobile phase: 50 mM KH2PO4-K2HPO4 (pH 7.0)/MeCN=8:2

[3] = Evaluation of moisture absorption and desorption properties (microbalance); conditions: 25° C.; for moisture absorption and desorption patterns: 10-90% RH; for change in weight (moisture absorption and desorption properties): measurement range 10-90% RH
Protocol: Of the various samples prepared in Example 1, the monohydrochloride dihydrate, monohydrochloride monohydrate, and sulfate were separately placed in quartz holders and examined for their moisture absorption and desorption behaviors using a microbalance under the following measurement conditions:
Measurement conditions for moisture absorption and desorption behavior (sample volume: approximately 10 mg, measurement range: 10-90% RH, measurement temperature: 25° C., variable: within 0.03%, varying length of time: 10 minutes, apparatus: atmospheric pressure-type automatic water vapor sorption instrument manufactured by VTI Corp.)

[4] = listed as monohydrochloride dihydrate of compound A, monohydrochloride dihydrate

In the case of `Cc1c(N2C[C@]3(N)CCC[C@]3(F)C2)c(F)cc2c(=O)c(C(=O)O)cn([C@@H]3C[C@@H]3F)c12` [Free form (anhydride), 7-[(1R,5S)-1-amino-5-fluoro-3-azabicyclo[3.3.0]octan-3-yl]-6-fluoro-1-[(1R,2S)-2-fluorocyclopropan-1-yl]-1,4-dihydro-8-methyl-4-oxoquinoline-3-carboxylic acid], the “Increase in related substances (%)” value ([1]; 40° C./75% RH) is reported as 0.01%, the “Increase in related substances (%)” value ([1]; 60° C./0% RH) is reported as 0.01% and the Concentration ([2]; Fasted state simulated intestinal fluid (FaSSIF)) is reported as 319 µg/mL. It also gave a Concentration ([2]; JP 2nd fluid for dissolution test) of 352 µg/mL and a Concentration ([2]; Water) of 280 µg/mL.
In the case of `Cc1c(N2C[C@]3(N)CCC[C@]3(F)C2)c(F)cc2c(=O)c(C(=O)O)cn([C@@H]3C[C@@H]3F)c12` [Monohydrochloride dihydrate, 7-[(1R,5S)-1-amino-5-fluoro-3-azabicyclo[3.3.0]octan-3-yl]-6-fluoro-1-[(1R,2S)-2-fluorocyclopropan-1-yl]-1,4-dihydro-8-methyl-4-oxoquinoline-3-carboxylic acid monohydrochloride dihydrate], the “Increase in related substances (%)” value ([1]; 60° C./0% RH, listed as monohydrochloride dihydrate of compound A, monohydrochloride dihydrate) is reported as 0.02%, the “Increase in related substances (%)” value ([1]; 60° C./0% RH, monohydrochloride dihydrate) is reported as 0.02% and the “moisture absorption and desorption patterns” value [3, 4] is reported as “well consistent”. The “moisture absorption and desorption patterns” value ([3]; monohydrochloride dihydrate) was “well consistent”, the “change in weight (moisture absorption and desorption properties)” value [3, 4] was ≤ 2% and the solubility at 30 min ([2]; 37 °C, thermodynamic from solid, in each of water, JP 1st fluid, JP 2nd fluid, FaSSIF and FeSSIF) was ≥ 2000 µg/mL. The Concentration ([2]; Fasted state simulated intestinal fluid (FaSSIF), monohydrochloride dihydrate) was >2000 µg/mL, the Concentration ([2]; Fed state simulated intestinal fluid (FeSSIF)) was >2000 µg/mL and the Concentration ([2]; JP 1st fluid for dissolution test) was >2000 µg/mL. The Concentration ([2]; JP 2nd fluid for dissolution test, monohydrochloride dihydrate) was >2000 µg/mL and the Concentration ([2]; Water, monohydrochloride dihydrate) was >2000 µg/mL.
With `Cc1c(N2C[C@]3(N)CCC[C@]3(F)C2)c(F)cc2c(=O)c(C(=O)O)cn([C@@H]3C[C@@H]3F)c12` [monohydrochloride monohydrate] the “moisture absorption and desorption patterns” value ([3]; monohydrate) was “substantially the same” and the “change in weight (moisture absorption and desorption properties)” value ([3]; monohydrate) was ≤ 1%.
With `Cc1c(N2C[C@]3(N)CCC[C@]3(F)C2)c(F)cc2c(=O)c(C(=O)O)cn([C@@H]3C[C@@H]3F)c12` [sulfate of compound A] the “moisture absorption and desorption patterns” value [3] was “well consistent”, the “change in weight (moisture absorption and desorption properties)” value [3] was ≤ 2% and the “change in weight (moisture absorption and desorption behaviors)” value ([3]; relative humidity of 40% to 60%) was ≤ 2%.
